Measured values published in patent publication US20170290774A1, “NEUROKININ-1 RECEPTOR ANTAGONIST COMPOSITION FOR TREATMENT OF DISEASES AND CONDITIONS OF THE RESPIRATORY TRACT” (PLUS VITECH, S.L., priority 2014, published 2017).
Read-outs that look alike come from different tables or passages of the source.

Experiments:
[1] = cited from earlier work
MMP-14 = test: Immunohistochemistry of MMP-14 in respiratory tract tissue of sodium hypochlorite aerosol-treated rabbits; format: in vivo, New Zealand albino rabbits
Excerpt: It is known that the factors TGF-α, TGF-β 1, TGF-β 2, TGF-β 3, SPARC, MMP-3; MMP-7, MMP-9, MMP-11, MMP-13 and MMP-14, TGF-β, NF-kB, EGF, MMP-9, VEGF and TNF-α which are produced by lung cells (pneumocytes, fibroblasts and vascular endothelial cells) and inflammatory cells (macrophages, lymphocytes and polymorphonuclear leukocytes) are involved in the pathophysiology and development of said respiratory tract diseases. […] Herein, 27 New Zealand albino rabbits (New Zealand White Rabbit) with an initial average weight about 3 kg were used in this example. All subjects were administered an aerosol of a solution consisting of a mixture of water and sodium hypochlorite (35 g sodium hypochlorite per liter of water) at a rate of 5 mL of said solution by inhalation three times a day for 7 days (days 1 to 7 of experimentation). Subsequently, from days 3 to 7, a group of 3 rabbits (Group 1) was administered an oral dose of 10 mg/kg body weight per day, another group of 3 rabbits (Group 2) was administered an oral dose of 40 mg/kg body weight per day, a third group (Group 3) was administered an oral dose of 80 mg/kg body weight per day and a fourth group (Group 4) was administered an oral dose of 100 mg/kg body weight per day. […] This mixture was administered as an aerosol by inhalation, also from days 3 to 7, to a group of 3 rabbits (group 5) at a dose of 0.05 mg/kg body weight per day, to another group of three rabbits (Group 6) at a dose of 0.1 mg/kg body weight per day, to another group of three rabbits (Group 7) at a dose of 0.2 mg/kg body weight per day and to another group of three rabbits (Group 8) at a dose of 0.4 mg/kg body weight per day. A placebo consisting only of olive oil was administered from days 3 to 7 to a control group of 3 rabbits (placebo group). In parallel, 3 rabbits were kept under identical conditions but were not administered any treatment nor the aforementioned sodium hypochlorite solution (control group). […] On day 7 of the experiment all animals were euthanized and necropsied. […] Samples were taken at the peripheral level of the lung parenchyma, just below the pleural surface. Tissue samples were also taken from the nasal cavity, pharynx, larynx and bronchi. Immunohistochemistry studies were performed for all samples to evaluate the levels of the markers TGF-α, TGF-β 1, TGF-β 2, TGF-β 3 SPARC, MMP-3; MMP-7, MMP-9, MMP-11, MMP-14, TGF-β, TNF-α and VEGF. In said immunohistochemistry studies, a sample of each sample was dehydrated by treatment with increasing concentrations of ethanol and finally xylene. Subsequently said dried samples were embedded in paraffin, thus creating a block. Said paraffin blocks were cut on a microtome to a thickness of 5 μm, and the resulting sections (slices) were placed on slides suitable for conducting immunohistochemistry techniques. Subsequently, the sections were deparaffinised by immersion in xylene and then rehydrated through immersion in a series of solutions containing decreasing concentrations of ethanol and, finally, water. […] The samples were then allowed to cool to room temperature over 10 minutes. Endogenous peroxidase activity was blocked by treatment with 3% hydrogen peroxide over 30 min at room temperature. […] In order to verify the expression of NK1 receptors, the cell samples were incubated in the presence of anti-NK1 antibodies ([…], Sigma-Aldrich) diluted 1:1000 at 4° C. overnight. After this time they were washed in 0.05M Tris buffer at room temperature. Subsequently, Envision System-HRP (Dako) reagents were added for 30 min at room temperature. Once this time had expired, the samples were again washed with 0.05 M Tris buffer, and immunoreactivity was visualized by light microscopy with a chromogenic solution with 3,3'-diaminobenzidine (DAB+; Dako, USA). In order to differentiate the cell nuclei, these were lightly stained with haematoxylin. Samples that were not incubated with the primary antibody, but wherein this was replaced by a non-immune serum were used as negative controls. […]

[2] = single oral dose of 125 mg of Emend
[3] = terminal nephropathy with hemodialysis, single dose of 240 mg of Emend

SMILES: C[C@@H](OC1OCCN(Cc2nc(=O)[nH][nH]2)C1c1ccc(F)cc1)c1cc(C(F)(F)F)cc(C(F)(F)F)c1 (stereo in doubt) [Aprepitant, 5-([(2R,3S)-2-((R)-1-[3,5-bis(trifluoromethyl)phenyl]ethoxy)-3-(4-fluorophenyl)morpholino]methyl)-1H-1,2,4-triazol-3(2H)-one]
- effect of mild hepatic insufficiency on pharmacokinetics ([1]; Child-Pugh score of 5 to 6): does not affect to a clinically relevant degree
- oral bioavailability ([1]; Emend capsule of 80 mg): 67%
- oral bioavailability ([1]; Emend capsule of 125 mg): 59%
- linearity of pharmacokinetics ([1]; clinical dose interval): non-linear pharmacokinetics
- AUC0-24 h greater in elderly (≧65 years) than younger adults ([1]; day 1, oral 125 mg Emend): 21%
- Cmax greater in elderly than younger adults ([1]; day 1): 10%
- AUC0-24 h greater in elderly (≧65 years) than younger adults ([1]; day 5, 80 mg once a day): 36%
- Cmax greater in elderly than younger adults ([1]; day 5): 24%
- share of plasma radioactivity ([1]; healthy young adults, over 72 hours after single 100 mg intravenous dose of [C14] prodrug): approximately 19%
- increase in AUC0-∞ greater in proportion to the dose ([1]; healthy young adults, single doses of 80 mg and 125 mg, postprandial): 26%
- metabolites identified in human plasma ([1]; human plasma): 12
- increase of AUC with food ([1]; oral capsule with standard breakfast of approximately 800 Kcal): up to 40%
- Tmax ([1]; oral): approximately 4 hours
- reduction of AUC0-∞ of total aprepitant with respect to healthy patients ([1]; severe renal insufficiency (CrCl<30 ml/min), single dose of 240 mg of Emend): 21%
- reduction of Cmax with respect to healthy patients ([1]; severe renal insufficiency, single dose of 240 mg of Emend): 32%
- Cmax greater in women than men [1, 2]: 16%
- half-life greater in women than men [1, 2]: 25%
- reduction of AUC0-∞ of total aprepitant [1, 3]: 42%
- reduction of Cmax [1, 3]: 32%
- Percent increase in MMP-14 with respect to the control group (MMP-14; bronchial tissue, Group 1, oral 10 mg/kg per day): 567.32%
- Percent increase in MMP-14 with respect to the control group (MMP-14; bronchial tissue, Group 2, oral 40 mg/kg per day): 434.45%
- Percent increase in MMP-14 with respect to the control group (MMP-14; bronchial tissue, Group 3, oral 80 mg/kg per day): 325.56%
- Percent increase in MMP-14 with respect to the control group (MMP-14; bronchial tissue, Group 4, oral 100 mg/kg per day): 312.56%
- % Med G5/C: percent increase in marker MMP-14 with respect to the control group (MMP-14; bronchial tissue, Group 5): 458.45%
- % Med G6/C: percent increase in marker MMP-14 with respect to the control group (MMP-14; bronchial tissue, Group 6): 342.32%
- % Med G7/C: percent increase in marker MMP-14 with respect to the control group (MMP-14; bronchial tissue, Group 7): 246.47%
- % Med G8/C: percent increase in marker MMP-14 with respect to the control group (MMP-14; bronchial tissue, Group 8): 164.63%
- Percent increase in MMP-14 with respect to the control group (MMP-14; laryngeal tissue, Group 1, oral 10 mg/kg per day): 678.45%
- Percent increase in MMP-14 with respect to the control group (MMP-14; laryngeal tissue, Group 2, oral 40 mg/kg per day): 567.34%
- Percent increase in MMP-14 with respect to the control group (MMP-14; laryngeal tissue, Group 3, oral 80 mg/kg per day): 459.43%
- Percent increase in MMP-14 with respect to the control group (MMP-14; laryngeal tissue, Group 4, oral 100 mg/kg per day): 387.34%
- Percent increase in MMP-14 with respect to the control group (MMP-14; laryngeal tissue, Group 5, inhalation 0.05 mg/kg per day): 639.34%
- Percent increase in MMP-14 with respect to the control group (MMP-14; laryngeal tissue, Group 6, inhalation 0.1 mg/kg per day): 543.12%
- Percent increase in MMP-14 with respect to the control group (MMP-14; laryngeal tissue, Group 7, inhalation 0.2 mg/kg per day): 342.23%
- Percent increase in MMP-14 with respect to the control group (MMP-14; laryngeal tissue, Group 8, inhalation 0.4 mg/kg per day): 201.28%
- Percent increase in MMP-14 with respect to the control group (MMP-14; lung tissue, Group 1, oral 10 mg/kg per day): 683.47%
- Percent increase in MMP-14 with respect to the control group (MMP-14; lung tissue, Group 2, oral 40 mg/kg per day): 569.37%
- Percent increase in MMP-14 with respect to the control group (MMP-14; lung tissue, Group 3, oral 80 mg/kg per day): 441.85%
- Percent increase in MMP-14 with respect to the control group (MMP-14; lung tissue, Group 4, oral 100 mg/kg per day): 354.84%
- Percent increase in MMP-14 with respect to the control group (MMP-14; lung tissue, Group 5, inhalation 0.05 mg/kg per day): 769.70%
- Percent increase in MMP-14 with respect to the control group (MMP-14; lung tissue, Group 6, inhalation 0.1 mg/kg per day): 323.25%
- Percent increase in MMP-14 with respect to the control group (MMP-14; lung tissue, Group 7, inhalation 0.2 mg/kg per day): 184.50%
- Percent increase in MMP-14 with respect to the control group (MMP-14; lung tissue, Group 8, inhalation 0.4 mg/kg per day): 153.36%
- Percent increase in MMP-14 with respect to the control group (MMP-14; nasal cavity tissue, Group 1, oral 10 mg/kg per day): 1,016.51%
- Percent increase in MMP-14 with respect to the control group (MMP-14; nasal cavity tissue, Group 2, oral 40 mg/kg per day): 680.45%
- Percent increase in MMP-14 with respect to the control group (MMP-14; nasal cavity tissue, Group 3, oral 80 mg/kg per day): 412.64%
- Percent increase in MMP-14 with respect to the control group (MMP-14; nasal cavity tissue, Group 4, oral 100 mg/kg per day): 317.68%
- Percent increase in MMP-14 with respect to the control group (MMP-14; nasal cavity tissue, Group 5, inhalation 0.05 mg/kg per day): 1,190.13%
- Percent increase in MMP-14 with respect to the control group (MMP-14; nasal cavity tissue, Group 6, inhalation 0.1 mg/kg per day): 510.81%
- Percent increase in MMP-14 with respect to the control group (MMP-14; nasal cavity tissue, Group 7, inhalation 0.2 mg/kg per day): 206.80%
- Percent increase in MMP-14 with respect to the control group (MMP-14; nasal cavity tissue, Group 8, inhalation 0.4 mg/kg per day): 149.00%
- Percent increase in MMP-14 with respect to the control group (MMP-14; pharyngeal tissue, Group 1, oral 10 mg/kg per day): 1,148.43%
- Percent increase in MMP-14 with respect to the control group (MMP-14; pharyngeal tissue, Group 2, oral 40 mg/kg per day): 980.64%
- Percent increase in MMP-14 with respect to the control group (MMP-14; pharyngeal tissue, Group 3, oral 80 mg/kg per day): 762.45%
- Percent increase in MMP-14 with respect to the control group (MMP-14; pharyngeal tissue, Group 4, oral 100 mg/kg per day): 560.45%
- Percent increase in MMP-14 with respect to the control group (MMP-14; pharyngeal tissue, Group 5, inhalation 0.05 mg/kg per day): 1,091.23%
- Percent increase in MMP-14 with respect to the control group (MMP-14; pharyngeal tissue, Group 6, inhalation 0.1 mg/kg per day): 709.21%
- Percent increase in MMP-14 with respect to the control group (MMP-14; pharyngeal tissue, Group 7, inhalation 0.2 mg/kg per day): 245.45%
- Percent increase in MMP-14 with respect to the control group (MMP-14; pharyngeal tissue, Group 8, inhalation 0.4 mg/kg per day): 135.00%
